Test results published in paper PMC7265429, “Characterization of a new small-molecule inhibitor of HDAC6 in glioblastoma” (Cell Death & Disease, 2020).

Test system: acetyl-α-tubulin (HDAC6 main target) in U251-MG cells
Assay: Western blot of acetyl-α-tubulin and cleaved PARP in U251-MG
Assay type: cell-based, human
Conditions: 10 nM, 48 h
Description: Immunoblots were performed following standard procedures. […] Detection was performed by chemiluminiscence using NOVEX ECL Chemi Substrate (ThermoFisher).

O=C(CCCCCCC(=O)Nc1ccccc1)NO [SAHA, Suberoylanilide hydroxamic acid]
α-tubulin hyperacetylation: did not
